One compound from ChEMBL document CHEMBL5726883, “Pyrazines as modulators of GPR6” (2019) can be followed below.

The structures appear in SMILES notation.

The assay deals with G-protein coupled receptor 6 (Homo sapiens, UniProt P46095). The assay is described as follows: A.1 Inhibition of cAMP Activity of GPR6 In Vitro Assay: This cell based assay measures the ability of compounds to inhibit the constitutive cAMP activity of GPR6 receptor expressed in CHO-K1 cells. CHO cells were stably expressed with GPR6 receptor, whose expression is controlled by a tetracycline inducible element. The cells were cultured in medium containing F12K, 10% FBS, 1% Penn/Strep, 200 ug/mL Hygromycin. GPR6 receptor expression was induced for 20 hrs with 10 µg/ml doxycycline (sigma D9891) in growth media. After addition of doxycycline cells were plated at a density of 250-500 cells per well in half-volume black clear bottom plates (Costar) and place in an incubator (37°, 5% C(O)2) for 20 hours prior to cAMP assays.Culture media was removed from cells and they were washed with […] of Ringer's Buffer (MgCl2 0.047 mg/mL, NaH2PO4 0.18 mg/mL, Na2HPO4 0.1 mg/mL, KCl 0.34 mg/mL, NaHC(O)3 1.26 mg/mL, D-glucose 1.8 mg/mL, NaCl 7 mg/mL; pH=7.4). Compounds suspended in DMSO were diluted in Ringer's Buffer containing 0.5% fatty acid free BSA and incubated on cells for 45 min at 37° and 5% C(O)2. After incubation cells were incubated for 10 min at room temp with Eu-cAMP tracer solution from a Perkin Elmer Lance HTRF UltracAMP assay kit (TRF0264).
Chain of G-protein coupled receptor 6 (P46095 whole entry): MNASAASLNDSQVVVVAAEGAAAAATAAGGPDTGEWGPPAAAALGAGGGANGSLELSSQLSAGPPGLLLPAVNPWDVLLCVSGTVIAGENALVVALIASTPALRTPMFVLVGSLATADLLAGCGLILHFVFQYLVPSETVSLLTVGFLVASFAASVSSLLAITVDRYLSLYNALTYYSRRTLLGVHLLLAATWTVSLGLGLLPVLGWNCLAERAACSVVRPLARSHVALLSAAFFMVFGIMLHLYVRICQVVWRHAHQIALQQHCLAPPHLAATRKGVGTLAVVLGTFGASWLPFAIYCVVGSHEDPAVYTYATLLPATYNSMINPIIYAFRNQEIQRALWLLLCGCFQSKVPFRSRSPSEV

Take `CC(C)Nc1nc(COCCN(C)C)c(C#N)nc1N1CCN(Cc2ccc(F)cc2F)CC1`: the EC50 came out at 62.5 µM.
